# Test: preservation of enzyme activity in the tablet in use
# Assay type: physicochemical
# Details: in the non-dissolved part of the tablet
# Text: A preferred boron compound is borax, which the present inventors have found acts to preserve the enzyme activity in use for at least 3 months in the non-dissolved part of the tablet. The present invention thus provides matching between the enzyme activity and tablet dissolution parameters.
smiles,measurement,value
"O=BOB(O)OB(O)OB=O [borax, Borax]",time for which enzyme activity is preserved in use,at least 3 months
